In US20050197350A1, “Novel quinoline, tetrahydroquinazoline, and pyrimidine derivatives and methods of treatment related to the use thereof” (TAISHO PHARMACEUTICAL CO., LTD., priority 2003, published 2005):

system: MCH receptors; assay: MCH receptor activity class (method not given); conditions: MCH receptor activity class 1-3 (percent of control at 10^-7 M or IC50)

| Compound | class |
| --- | --- |
| N-[(cis-4-{[4-(dimethylamino)pyrimidin-2-yl]amino}cyclohexyl)methyl]-N′-(2-ethyl-6-isopropylphenyl)urea [compound 2422] | 1 (Class 1: The value of percent of control at 10^−7 M was less than 40% or the value of IC50 was less than 50 nM.) |
| CN(C)c1cc(N[C@H]2CC[C@@H](CNC(=O)Nc3c(Cl)cccc3Cl)CC2)nc2ccccc12 [compound 2399] | 3 (Class 3 The value of percent of control at 10^−7 M was more than 60% or the value of IC50 was more than 200 nM.) |
| CCc1cccc(CC)c1NC(=S)N[C@H]1CC[C@@H](Nc2nccc(N(C)C)n2)CC1 [compound 2322] | 3 (Class 3 The value of percent of control at 10^−7 M was more than 60% or the value of IC50 was more than 200 nM.) |

same assay, conditions: MCH receptor; class by percent of control at 10^-7 M or IC50

| Compound | class |
| --- | --- |
| CN(C)c1cc(N[C@H]2CC[C@@H](CNC(=O)c3cc(Cl)cc(Cl)c3)CC2)nc2ccccc12 [compound 157] | 3 (Class 3 The value of percent of control at 10^−7 M was more than 60% or the value of IC50 was more than 200 nM.) |
| CN(C)c1nc(N[C@H]2CC[C@@H](NC(=O)Nc3ccc(-c4ccccc4)cc3)CC2)nc2c1CCCC2 [compound 1898] | 3 (Class 3 The value of percent of control at 10^−7 M was more than 60% or the value of IC50 was more than 200 nM.) |
| Cc1ccc(C(=O)NC[C@H]2CC[C@@H](Nc3cc(N(C)C)c4ccccc4n3)CC2)c(F)c1F [compound 187] | 3 (Class 3 The value of percent of control at 10^−7 M was more than 60% or the value of IC50 was more than 200 nM.) |
| CN(C)c1nc(N[C@H]2CC[C@@H](NC(=S)Nc3cc(C(F)(F)F)ccc3Cl)CC2)nc2c1CCCC2 [compound 2003] | 3 (Class 3 The value of percent of control at 10^−7 M was more than 60% or the value of IC50 was more than 200 nM.) |
| Cc1ccccc1CNC(=S)N[C@H]1CC[C@@H](Nc2nc3c(c(N(C)C)n2)CCCC3)CC1 [compound 2040] | 3 (Class 3 The value of percent of control at 10^−7 M was more than 60% or the value of IC50 was more than 200 nM.) |

same assay, conditions: activity class 1-3: percent of control at 10^-7 M or IC50

| Compound | class |
| --- | --- |
| CC(C)[C@@H]1CC[C@@H](C)CC1OC(=O)NC[C@H]1CC[C@@H](Nc2nc3c(c(N(C)C)n2)CCCC3)CC1 (some centres unmarked) [compound 1613] | 3 (Class 3 The value of percent of control at 10^−7 M was more than 60% or the value of IC50 was more than 200 nM.) |
| CN(C)c1nc(N[C@H]2CC[C@@H](CNC(=O)OCCOCc3ccccc3)CC2)nc2c1CCCC2 [compound 1599] | 3 (Class 3 The value of percent of control at 10^−7 M was more than 60% or the value of IC50 was more than 200 nM.) |
| CCOC(=O)[C@H](CC(C)C)NC(=O)N[C@H]1CC[C@@H](Nc2nc3c(c(N(C)C)n2)CCCC3)CC1 (relative stereo) [compound 1663] | 3 (Class 3 The value of percent of control at 10^−7 M was more than 60% or the value of IC50 was more than 200 nM.) |
| CN(C)c1ccnc(N[C@H]2CC[C@@H](NCCN(CCC#N)c3ccccc3)CC2)n1 [compound 1524] | 3 (Class 3 The value of percent of control at 10^−7 M was more than 60% or the value of IC50 was more than 200 nM.) |

same assay, conditions: class 1-3 by percent of control at 10^-7 M or IC50

| Compound | class |
| --- | --- |
| COc1ccc(OC)c(CC(=O)NC[C@H]2CC[C@@H](Nc3nc4c(c(N(C)C)n3)CCCC4)CC2)c1 [compound 597] | 3 (Class 3 The value of percent of control at 10^−7 M was more than 60% or the value of IC50 was more than 200 nM.) |

same assay, conditions: class by percent of control at 10^-7 M or IC50

| Compound | class |
| --- | --- |
| CN(C)c1cc(N[C@H]2CC[C@@H](NC(=S)Nc3ccc(C#N)cc3)CC2)nc2ccccc12 [compound 2168] | 3 (Class 3 The value of percent of control at 10^−7 M was more than 60% or the value of IC50 was more than 200 nM.) |
| COc1ccc(NC(=S)N[C@H]2CC[C@@H](Nc3cc(N(C)C)c4ccccc4n3)CC2)cc1OC [compound 2176] | 3 (Class 3 The value of percent of control at 10^−7 M was more than 60% or the value of IC50 was more than 200 nM.) |
| CN(C)c1nc(N[C@H]2CC[C@@H](CNC(=O)c3cc(C(F)(F)F)cc(C(F)(F)F)c3)CC2)nc2c1CCCC2 [compound 640] | 3 (Class 3 The value of percent of control at 10^−7 M was more than 60% or the value of IC50 was more than 200 nM.) |
| CN(C)c1cc(N[C@H]2CC[C@@H](NC(=O)c3cc(Br)c(Br)o3)CC2)nc2ccccc12 [compound 706] | 1 (Class 1: The value of percent of control at 10^−7 M was less than 40% or the value of IC50 was less than 50 nM.) |
| CN(C)c1ccnc(N[C@H]2CC[C@@H](NC(=O)NCc3ccccc3Cl)CC2)n1 [compound 2195] | 3 (Class 3 The value of percent of control at 10^−7 M was more than 60% or the value of IC50 was more than 200 nM.) |
| CCc1ccc(CNC[C@H]2CC[C@@H](Nc3nccc(N(C)C)n3)CC2)s1 [compound 1278] | 3 (Class 3 The value of percent of control at 10^−7 M was more than 60% or the value of IC50 was more than 200 nM.) |
| Cc1cccc(C(C)(C)C)c1NC(=O)N[C@H]1CC[C@@H](Nc2nccc(N(C)C)n2)CC1 [compound 2203] | 3 (Class 3 The value of percent of control at 10^−7 M was more than 60% or the value of IC50 was more than 200 nM.) |
| CC(C(=O)N[C@H]1CC[C@@H](Nc2nccc(N(C)C)n2)CC1)c1ccc(C(=O)c2cccs2)cc1 (relative stereo) [compound 884, N-(cis-4-{[4-(dimethylamino)pyrimidin-2-yl]amino}cyclohexyl)-2-[4-(2-thienylcarbonyl)phenyl]propanamide] | 2 (Class 2: The value of percent of control at 10^−7 M was from 40% to 60% or the value of IC′50 was from 50 nM to 200 nM.) |
| CC(NC(=O)N[C@H]1CC[C@@H](Nc2cc(N(C)C)c3ccccc3n2)CC1)c1cccc2ccccc12 (relative stereo) [compound 2134] | 1 (Class 1: The value of percent of control at 10^−7 M was less than 40% or the value of IC50 was less than 50 nM.) |
| CCC(Oc1ccccc1)C(=O)N[C@H]1CC[C@@H](Nc2nccc(N(C)C)n2)CC1 (relative stereo) [compound 266, N-(cis-4-{[4-(dimethylamino)pyrimidin-2-yl]amino}cyclohexyl)-2-phenoxybutanamide] | 2 (Class 2: The value of percent of control at 10^−7 M was from 40% to 60% or the value of IC′50 was from 50 nM to 200 nM.) |
| CN(C)c1cc(N[C@H]2CC[C@@H](NC(=O)Cc3ccc(F)cc3Cl)CC2)nc2ccccc12 [compound 675] | 3 (Class 3 The value of percent of control at 10^−7 M was more than 60% or the value of IC50 was more than 200 nM.) |
| CN(C)c1ccnc(N[C@H]2CC[C@@H](NC(=O)c3cccc(Cl)c3)CC2)n1 [compound 242] | 1 (Class 1: The value of percent of control at 10^−7 M was less than 40% or the value of IC50 was less than 50 nM.) |
| COc1cc(CNC[C@H]2CC[C@@H](Nc3nc4c(c(N(C)C)n3)CCCC4)CC2)cc(Br)c1OC [compound 1431] | 3 (Class 3 The value of percent of control at 10^−7 M was more than 60% or the value of IC50 was more than 200 nM.) |
| COc1ccc(NC(=O)N[C@H]2CC[C@@H](Nc3cc(N(C)C)c4ccccc4n3)CC2)c(C)c1 [compound 2156] | 3 (Class 3 The value of percent of control at 10^−7 M was more than 60% or the value of IC50 was more than 200 nM.) |
| CCOc1ccc(Br)cc1CNC[C@H]1CC[C@@H](Nc2nccc(N(C)C)n2)CC1 [compound 1287] | 1 (Class 1: The value of percent of control at 10^−7 M was less than 40% or the value of IC50 was less than 50 nM.) |
| Cc1cc(C(=O)NC[C@H]2CC[C@@H](Nc3cc(N(C)C)c4ccccc4n3)CC2)nn1C(C)(C)C [compound 217] | 3 (Class 3 The value of percent of control at 10^−7 M was more than 60% or the value of IC50 was more than 200 nM.) |

same assay, conditions: class by percent of control at 10^−7 M or IC50

| Compound | class |
| --- | --- |
| COc1cccc([C@H](C)NC(=O)[C@H]2CC[C@@H](Nc3nc(C)cc(N(C)C)n3)CC2)c1 [compound 2803, cis-4-{[4-(dimethylamino)-6-methylpyrimidin-2-yl]amino}-N-[(1S)-1-(3-methoxyphenyl)ethyl]cyclohexanecarboxamide] | 2 (Class 2: The value of percent of control at 10^−7 M was from 40% to 60% or the value of IC′50 was from 50 nM to 200 nM.) |
| Cc1cc(N(C)C)nc(N[C@H]2CC[C@@H](NC(=O)c3ccc(Cl)cc3)CC2)n1 [compound 2986] | 1 (Class 1: The value of percent of control at 10^−7 M was less than 40% or the value of IC50 was less than 50 nM.) |
| Cc1cnc(N[C@H]2CC[C@@H](NC(=O)c3ccc(F)c(C(F)(F)F)c3)CC2)nc1N(C)C [compound 2919] | 1 (Class 1: The value of percent of control at 10^−7 M was less than 40% or the value of IC50 was less than 50 nM.) |
| Cc1cnc(N[C@H]2CC[C@@H](NC(=O)CN(C)c3cccc(Cl)c3)CC2)nc1N(C)C [compound 2941] | 1 (Class 1: The value of percent of control at 10^−7 M was less than 40% or the value of IC50 was less than 50 nM.) |
| Cc1cnc(NC[C@H]2CC[C@@H](NC(=O)c3ccc(C(F)(F)F)cc3)CC2)nc1N(C)C [compound 2720] | 3 (Class 3 The value of percent of control at 10^−7 M was more than 60% or the value of IC50 was more than 200 nM.) |
| Cc1cccc(Oc2ncccc2C(=O)N[C@H]2CC[C@@H](Nc3ncc(C)c(N(C)C)n3)CC2)c1 [compound 2885, N-(cis-4-{[4-(dimethylamino)-5-methylpyrimidin-2-yl]amino}cyclohexyl)-2-(3-methylphenoxy)nicotinamide] | 1 (Class 1: The value of percent of control at 10^−7 M was less than 40% or the value of IC50 was less than 50 nM.) |
| COc1cc(C(=O)N[C@H]2CC[C@@H](Nc3nc(C)cc(N(C)C)n3)CC2)cc(OC)c1OC [compound 2991, N-(cis-4-{[4-(dimethylamino)-6-methylpyrimidin-2-yl]amino}cyclohexyl)-3,4,5-trimethoxybenzamide] | 1 (Class 1: The value of percent of control at 10^−7 M was less than 40% or the value of IC50 was less than 50 nM.) |
| Cc1cnc(NC[C@H]2CC[C@@H](NC(=O)c3ccc(C(F)(F)F)c(F)c3)CC2)nc1N(C)C [compound 2727] | 3 (Class 3 The value of percent of control at 10^−7 M was more than 60% or the value of IC50 was more than 200 nM.) |
| Cc1cc(N(C)C)nc(N[C@H]2CC[C@@H](CNC(=O)c3ccc(C(F)(F)F)cc3)CC2)n1 [compound 2758] | 2 (Class 2: The value of percent of control at 10^−7 M was from 40% to 60% or the value of IC′50 was from 50 nM to 200 nM.) |
